Several values for one entry are separate records, joined by “and”; a condition that tells them apart may be missing. Equal entries are not always repeated.
How the values were obtained:
Format in all cases: in vivo
Bedstraw Catchweed = assay: pre-emergence herbicide test; conditions: for inhibition at 1000.92 g/ha: 0.893 lb/A
Summary of the method: (§1)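 Sown seeds covered with dosed topsoil; carrier acetone or water; greenhouse, watered from below, optional 1/4 in overhead irrigation post-treatment; % inhibition at ~14 d.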

Blackgrass = assay: pre-emergence herbicide test
Summary of the method: as §1

Common Chickweed [1] = assay: pre-emergence herbicide test; conditions: pre-emergence, read-out: % plant inhibition
Summary of the method: as §1

Wheat = assay: pre-emergence herbicide test; conditions: Triticum aestivum, pre-emergence, read-out: % plant inhibition
Summary of the method: as §1

Yellow Foxtail = assay: post-emergence herbicide test; conditions: Setaria, read-out: % plant inhibition; for inhibition at 200.072 g/ha: 0.1785 lb/A; for inhibition at 1000.92 g/ha: 0.893 lb/A
Summary of the method: (§2)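 Activity is given as percent inhibition of each species following foliar application. Pots were sprayed individually in a chamber once plants reached two to three weeks.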

Yellow Nutsedge = assay: post-emergence herbicide test; conditions: Cyperus, read-out: % plant inhibition; for inhibition at 200.072 g/ha: 0.1785 lb/A; for inhibition at 1000.92 g/ha: 0.893 lb/A
Summary of the method: as §2

Velvetleaf = assay: post-emergence herbicide test; conditions: Abutilon theophrasti, post-emergence, read-out: % plant inhibition; for inhibition at 200.072 g/ha: 0.1785 lb/A; for inhibition at 1000.92 g/ha: 0.893 lb/A
Summary of the method: as §2

Common Chickweed [2] = assay: post-emergence herbicide test; conditions: post-emergence, read-out: % plant inhibition; for inhibition at 200.072 g/ha: 0.1785 lb/A; for inhibition at 1000.92 g/ha: 0.893 lb/A
Summary of the method: as §2

Corn = assay: post-emergence herbicide test; conditions: Zea mays, post-emergence, read-out: % plant inhibition; for inhibition at 200.072 g/ha: 0.1785 lb/A; for inhibition at 1000.92 g/ha: 0.893 lb/A
Summary of the method: as §2

Morning Glory = assay: post-emergence herbicide test; conditions: Ipomoea, post-emergence, read-out: % plant inhibition; for inhibition at 200.072 g/ha: 0.1785 lb/A; for inhibition at 1000.92 g/ha: 0.893 lb/A
Summary of the method: as §2

[3] = Galium aparine, pre-emergence, 0.1785 lb/A, read-out: % plant inhibition
[4] = Galium aparine, pre-emergence, read-out: % plant inhibition

Structure (SMILES): COc1cc(-c2nn(C)c(C(F)(F)F)c2C)c(F)cc1[N+](=O)[O-] [Compound 36]
- % plant inhibition (Bedstraw Catchweed; 0.1785 lb/A): 80%
- inhibition at 7.95803 g/ha (Bedstraw Catchweed; Galium aparine, pre-emergence, 0.0071 lb/A, read-out: % plant inhibition): 0%
- inhibition at 200.072 g/ha (Bedstraw Catchweed; [3]): 100%
- inhibition at 1000.92 g/ha (Bedstraw Catchweed; [4]): 100%
- % plant inhibition (Blackgrass; 0.893 lb/A): 100% and 50%
- inhibition at 7.95803 g/ha (Blackgrass; Alopecurus myosuroides, pre-emergence, 0.0071 lb/A, read-out: % plant inhibition): 0%
- inhibition at 40.0143 g/ha (Blackgrass; Alopecurus myosuroides, pre-emergence, 0.0357 lb/A, read-out: % plant inhibition): 0%
- inhibition at 7.95803 g/ha (Common Chickweed [1]; 0.0071 lb/A): 0%
- inhibition at 7.95803 g/ha (Wheat; 0.0071 lb/A): 0%
- inhibition at 40.0143 g/ha (Wheat; 0.0357 lb/A): 0%
- inhibition at 7.95803 g/ha (Yellow Foxtail; 0.0071 lb/A): 0%
- inhibition at 40.0143 g/ha (Yellow Foxtail; 0.0357 lb/A): 10%
- inhibition at 200.072 g/ha (Yellow Foxtail): 45%
- inhibition at 1000.92 g/ha (Yellow Foxtail): 70%
- inhibition at 7.95803 g/ha (Yellow Nutsedge; 0.0071 lb/A): 0%
- inhibition at 40.0143 g/ha (Yellow Nutsedge; 0.0357 lb/A): 0%
- inhibition at 200.072 g/ha (Yellow Nutsedge): 0%
- inhibition at 1000.92 g/ha (Yellow Nutsedge): 25%
- inhibition at 7.95803 g/ha (Velvetleaf; 0.0071 lb/A): 65%
- inhibition at 40.0143 g/ha (Velvetleaf; 0.0357 lb/A): 70%
- inhibition at 200.072 g/ha (Velvetleaf): 75%
- inhibition at 1000.92 g/ha (Velvetleaf): 100%
- inhibition at 7.95803 g/ha (Common Chickweed [2]; 0.0071 lb/A): 85%
- inhibition at 40.0143 g/ha (Common Chickweed [2]; 0.0357 lb/A): 15%
- inhibition at 200.072 g/ha (Common Chickweed [2]): 35%
- inhibition at 1000.92 g/ha (Common Chickweed [2]): 65%
- inhibition at 7.95803 g/ha (Corn; 0.0071 lb/A): 0%
- inhibition at 40.0143 g/ha (Corn; 0.0357 lb/A): 25%
- inhibition at 200.072 g/ha (Corn): 30%
- inhibition at 1000.92 g/ha (Corn): 40%
- inhibition at 7.95803 g/ha (Morning Glory; 0.0071 lb/A): 20%
- inhibition at 40.0143 g/ha (Morning Glory; 0.0357 lb/A): 40%
- inhibition at 200.072 g/ha (Morning Glory): 85%
- inhibition at 1000.92 g/ha (Morning Glory): 100%

Structure (SMILES): Cc1c(-c2cc(F)ccc2F)nn(C)c1C(F)(F)F [Compound 1, 3-(2,5-Difluorophenyl)-1,4-dimethyl-5-(trifluoromethyl)-1H-pyrazole]
- inhibition at 200.072 g/ha (Bedstraw Catchweed; [3]): 0%
- inhibition at 1000.92 g/ha (Bedstraw Catchweed; [4]): 0%
- inhibition at 5043.82 g/ha (Bedstraw Catchweed; Galium aparine, pre-emergence, 4.5 lb/A, read-out: % plant inhibition): 0%
- inhibition at 200.072 g/ha (Blackgrass; Alopecurus myosuroides, pre-emergence, 0.1785 lb/A, read-out: % plant inhibition): 0%
- inhibition at 1000.92 g/ha (Blackgrass; Alopecurus myosuroides, pre-emergence, 0.893 lb/A, read-out: % plant inhibition): 0%
- inhibition at 5043.82 g/ha (Blackgrass; Alopecurus myosuroides, pre-emergence, 4.5 lb/A, read-out: % plant inhibition): 15%
- inhibition at 200.072 g/ha (Common Chickweed [1]; 0.1785 lb/A): 0%
- inhibition at 1000.92 g/ha (Common Chickweed [1]; 0.893 lb/A): 0%
- inhibition at 5043.82 g/ha (Common Chickweed [1]; 4.5 lb/A): 0%
- inhibition at 200.072 g/ha (Wheat; 0.1785 lb/A): 0%
- inhibition at 1000.92 g/ha (Wheat; 0.893 lb/A): 0%
- inhibition at 5043.82 g/ha (Wheat; 4.5 lb/A): 10%
- inhibition at 200.072 g/ha (Yellow Foxtail): 0%
- inhibition at 1000.92 g/ha (Yellow Foxtail): 0%
- inhibition at 5043.82 g/ha (Yellow Foxtail; 4.5 lb/A): 50%
- inhibition at 200.072 g/ha (Yellow Nutsedge): 0%
- inhibition at 1000.92 g/ha (Yellow Nutsedge): 0%
- inhibition at 5043.82 g/ha (Yellow Nutsedge; 4.5 lb/A): 30%
- inhibition at 200.072 g/ha (Velvetleaf): 0%
- inhibition at 1000.92 g/ha (Velvetleaf): 0%
- inhibition at 5043.82 g/ha (Velvetleaf; 4.5 lb/A): 20%
- inhibition at 200.072 g/ha (Common Chickweed [2]): 0%
- inhibition at 1000.92 g/ha (Common Chickweed [2]): 0%
- inhibition at 5043.82 g/ha (Common Chickweed [2]; 4.5 lb/A): 40%
- inhibition at 200.072 g/ha (Corn): 0%
- inhibition at 1000.92 g/ha (Corn): 0%
- inhibition at 5043.82 g/ha (Corn; 4.5 lb/A): 40%
- inhibition at 200.072 g/ha (Morning Glory): 0%
- inhibition at 1000.92 g/ha (Morning Glory): 0%
- inhibition at 5043.82 g/ha (Morning Glory; 4.5 lb/A): 15%
